{"source": "patent US20230250094A1", "about": "“SMALL MOLECULE INHIBITORS OF TDP-43 ACTIVITY AND USES THEREOF” (Arizona Board of Regents on Behalf of the University of …, priority 2020, published 2023)", "key": {"TDP43102-269": {"target": "T1, TDP43102-269 (Homo sapiens, UniProt Q13148)", "T1 construct": "made in house", "T1 sequence (Q13148 102-269)": "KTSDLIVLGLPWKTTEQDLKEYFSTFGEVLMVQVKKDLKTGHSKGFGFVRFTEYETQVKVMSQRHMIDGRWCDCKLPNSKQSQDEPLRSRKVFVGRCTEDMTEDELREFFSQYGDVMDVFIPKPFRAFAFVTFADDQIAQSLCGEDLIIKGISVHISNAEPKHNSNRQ", "test": "STD-NMR negative control on TDP43 102-269 lacking the NTD", "assay_type": "binding", "details": "same conditions, negative control construct", "procedure": "(§1) FIG. 2. STD-NMR screening for compounds. A. Two different constructs were used for STD-NMR screening. 1D ^1H STD NMR showing on-resonance difference spectrum of 500 μM of compounds nTRD09-16 (B) or nTRD19-28 (C) with 5 μM TDP431-260. D. Positive hits from the first round of STD-NMR screening were tested against TDP43102-269 in the same conditions. Asterisks indicate positive signal.\n(§2) Saturation transfer difference nuclear magnetic resonance (STD-NMR) spectroscopy was then used to screen the binding of the compounds to TDP-431-260. As a negative control, binding to TDP43102-269 lacking the NTD was also determined (FIG. 2A). […]\n(§3) Saturation Transfer Difference Nuclear Magnetic Resonance (STD-NMR). Spectroscopy for small molecule binding. 1D ^1H STD-NMR was performed exactly as previously described (see, Frangois-Moutal, L.; et al., ACS Chem. Biol. 2019, 14, 2006-2013; Frangois-Moutal, L.; et al., ACS Chem. Biol. 2018, 13, 3000-3010)."}, "[1]": {"system": "Drosophila overexpressing TDP-43", "test": "Climbing (negative geotaxis) assay in Drosophila model of ALS overexpressing TDP-43", "assay_type": "in vivo", "details": "fly food supplemented with 50 μM"}, "TDP-431-260 [2]": {"target": "T2, TDP-431-260 (Homo sapiens, UniProt Q13148)", "T2 construct": "Human TDP-431-260 and TDP43102-269 were expressed as described in our previous studies; made in house", "T2 sequence (Q13148 1-260 limits assumed)": "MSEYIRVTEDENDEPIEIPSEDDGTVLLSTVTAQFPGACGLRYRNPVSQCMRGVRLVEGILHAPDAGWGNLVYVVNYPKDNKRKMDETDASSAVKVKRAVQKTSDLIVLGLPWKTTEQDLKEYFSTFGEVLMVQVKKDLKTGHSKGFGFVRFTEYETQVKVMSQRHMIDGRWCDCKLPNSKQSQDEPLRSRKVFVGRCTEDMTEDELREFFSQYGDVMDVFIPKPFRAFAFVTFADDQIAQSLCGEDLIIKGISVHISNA", "test": "STD-NMR screening of compound binding to TDP-43 1-260", "details": "500 μM compound, 5 μM protein", "procedure": "as §1, §2, §3"}, "TDP-431-260 [3]": {"target": "T2, TDP-431-260", "test": "2D 15N-HSQC NMR of TDP-43 1-260 with compound", "assay_type": "binding", "procedure": "2D ^15N-HSQC NMR spectrum of each positive hit was tested to further define the binding sites of the small molecule interactions with TDP-43 (FIG. 9). Using TDP-431-260, small molecules were added at a 4:1 molar ratio.\n(§4) To further characterize where nTRD22 binds on TDP-43, perturbations were measured using a 2D ^15N-HSQC NMR with increasing concentrations of nTRD22, up to a 8:1 molar ratio of nTRD22:TDP-431-260 (FIG. 4). […] To determine if these shifts were due to direct binding of nTRD22 to TDP-43102-269 (RRM region), a 2D ^15HSQC-NMR on TDP43102-269 with nTRD22 at a 4:1 molar ratio was collected (FIG. 4D, E).\n(§5) Heteronuclear Single Quantum Correlation-NMR (HSQC-NMR). NMR spectra were acquired in 40 mM HEPES pH 6.5, 500 mM NaCl, 4 mM DTT with 10% D20 at 100 μM protein concentrations using 5 mm Shigemi NMR tubes. NMR data were collected at 298 K on a Bruker Avance NEO 600 MHz and 800 MHz spectrometers with TCI-H&F/C/N probe. NMR processing and analysis was done using NMRpipe, NMRDraw and NMRFAM-Sparky. Transverse relaxation optimized spectroscopy (TROSY) was used for all HSQC experiments."}, "TDP-431-260 [4]": {"target": "T2, TDP-431-260", "test": "Microscale thermophoresis (MST)", "assay_type": "binding", "details": "NT-647 labeled TDP431-260, 0.03 μM-1 mM compound, mean±SD n=3; read-out: apparent Kd", "procedure": "FIG. 3. Modeling of binding and affinity of nTRD22 for TDP-43. A. Structure of N-(2-(3-hydroxypiperidin-1-yl)ethyl)-5-((3-(trifluoromethyl)phenoxy)methyl)isoxazole-3-carboxamide (nTRD22). B. 2D representation of nTRD22 binding pocket in TDP-43 NTD. C. MST values from thermographs of NT-647 labeled TDP431-260 in presence of increasing concentrations (0.03 μM-1 mM) of nTRD22 were used to determine dissociation constant for binding of nTRD22 to TDP431-260. […] Data is presented as mean±SD (n=3).\nIn-silico docking of nTRD22 predicted interactions with Q3, Y43, S48, G59, and A66 (FIG. 3A). ^1H-NMR of nTRD22 was used to evaluate the on-resonance energy transfer from STD-NMR of nTRD22 with TDP-431-260. The peaks seen in the STD-NMR spectrum were in the region of the benzyl group (ii, 6.9-7.2 ppm) (FIG. 2C) confirming the […] interaction of the benzene group of nTRD22 with Tyr43, predicted by virtual screening.\nMicroscale Thermophoresis (MST). Microscale thermophoresis experiments were performed using a NanoTemper Monolith Instrument (NT.115), similarly to Frangois-Moutal, L.; et al., ACS Chem. Biol. 2019, 14, 2006-2013."}, "[5]": {"target": "T3, TDP-431-260 binding to its canonical RNA sequence (UG6) (Homo sapiens, UniProt Q13148)", "T3 construct": "TDP-431-260-His (0.75 nM) and a single concentration of biotinylated-UG6 RNA (0.6 nM); made in house", "T3 sequence (Q13148 1-260 limits assumed)": "as above", "test": "Amplified luminescent proximity homogeneous alpha assay (ALPHA), RNA/TDP-43 disruption", "details": "TDP-431-260-His 0.75 nM, biotinylated-UG6 RNA 0.6 nM; read-out: IC50 of disruption of TDP-431-260 / UG6 RNA interaction", "procedure": "FIG. 5. RNA/TDP-43 disruption by nTRD22. A concentration-dependent curve was obtained for nTRD22's disruption of nucleic acid-TDP-431-260 interaction at a single RNA concentration (0.6 nM). Data is represented as mean±SEM (n=3).\nTo define which residues in the RRM domains were affected, the chemical-shift perturbations (CSP) induced by nTRD22 were mapped onto the known structure of TDP-43102-269 (PDB: 4bs2^15) using a color gradient (FIG. 4F,G). […] More precisely, L106/1107 and G148/V150 are part of RNP-2 and RNP-1 of RRM1 respectively, while C196 is part of RNP-2 in RRM2^16. Moreover, C173 is also shown to be affected in presence of RNA^15. […] It should be noted that in repeated experiments, different residues are shifted and although one representative spectrum is shown here (FIG. 4), the average shift from three experiments are also reported (FIG. 10). […] To test this, an amplified luminescent proximity homogeneous (alpha) assay recently developed for another compound targeting TDP-43^17 was used. TDP-431-260 binding to its canonical RNA sequence (UG6) was measured with ranging concentrations of compound and nTRD22 was able to inhibit 50% of the interaction with an IC50 of ˜100 μM (FIG. 5).\nAmplified luminescent proximity homogeneous alpha assay (ALPHA). […]"}, "TDP43-EGFP": {"target": "T4, TDP43-EGFP (Homo sapiens, UniProt Q13148)", "T4 construct": "expressed in transfected cells; host or cells: primary cortical neurons from embryonic day 20-21 Long Evans rat pups", "T4 sequence (Q13148 whole entry)": "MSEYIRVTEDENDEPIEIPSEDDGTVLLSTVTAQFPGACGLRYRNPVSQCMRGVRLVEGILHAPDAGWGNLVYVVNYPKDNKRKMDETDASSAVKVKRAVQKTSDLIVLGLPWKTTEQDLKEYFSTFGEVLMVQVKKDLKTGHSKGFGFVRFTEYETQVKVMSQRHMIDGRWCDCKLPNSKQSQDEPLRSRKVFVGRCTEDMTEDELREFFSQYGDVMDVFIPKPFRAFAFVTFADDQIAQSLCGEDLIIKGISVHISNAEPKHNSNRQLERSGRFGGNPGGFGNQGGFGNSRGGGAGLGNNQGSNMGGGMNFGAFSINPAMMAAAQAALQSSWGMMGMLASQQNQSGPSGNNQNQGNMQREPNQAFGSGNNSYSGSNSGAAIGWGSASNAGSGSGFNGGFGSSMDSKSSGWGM", "test": "TDP43-EGFP in rodent primary cortical neurons, automated fluorescence microscopy", "assay_type": "cell-based, rat", "details": "5 to 100 μM", "procedure": "(§6) FIG. 6. nTRD22 effect on primary cortical neurons. Confocal images of rodent primary cortical neurons with transfected TDP43-EGFP with A. DMSO, or B. […] nTRD22. Quantitation of GFP signal in TDP-43-EGFP (C) or EGFP (D) transfected primary neurons treated with increasing concentration of nTRD22 or DMSO. Data is presented as mean±SEM (n≥183 neurons from 8 technical and 3 biological replicates). Statistical difference was assessed by a Kruskal-Wallis test (*** p<0.001; **p=0.01).\n(§7) To test this, TDP-43 fused to enhanced green fluorescent protein (TDP43-EGFP) was expressed in rodent primary cortical neurons, applied nTRD22 at concentrations ranging from 5 to 100 μM, and imaged GFP positive cells by automated fluorescence microscopy^1819. […] No changes in the fluorescence of control cells transfected with EGFP was observed (FIG. 6D).\n(§8) Cell culture and transfection. […]\n(§9) Fluorescence microscopy. […]\n(§10) Image analysis. Custom ImageJ/Fiji macros and Python scripts (described in PMC6050042) were used to identify neurons and draw regions of interest (ROIs) based upon size, morphology, and fluorescence intensity. Additional scripts were used to identify and draw regions of interest (ROIs) surrounding each cell, and measure fluorescence intensity within individual ROIs. […]"}, "[6]": {"target": "T5, TDP-43102-269 (RRM region) (Homo sapiens, UniProt Q13148)", "T5 construct": "made in house", "T5 sequence (Q13148 102-269 limits assumed)": "as the sequence (Q13148 102-269) above", "test": "2D 15N-HSQC NMR of TDP43 102-269 (RRM region) with compound", "assay_type": "binding", "details": "4:1 molar ratio", "procedure": "as §4, §5"}, "EGFP": {"system": "EGFP", "test": "EGFP control-transfected rodent primary cortical neurons, fluorescence", "assay_type": "cell-based, rat", "details": "5 to 100 μM", "procedure": "as §6, §7, §8, §9, §10"}}, "note": "Entries after “also recorded” stand apart in the source; their conditions may differ."}
{"smiles": "O=C(NCCN1CCCC(O)C1)c1cc(COc2cccc(C(F)(F)F)c2)on1", "note": "(stereo not drawn) [nTRD22, N-(2-(3-hydroxypiperidin-1-yl)ethyl)-5-((3-(trifluoromethyl)phenoxy)methyl)isoxazole-3-carboxamide]", "values": [{"measurement": "STD-NMR binding to TDP43102-269 (lacking NTD)", "setting": "TDP43102-269", "value": "did not"}, {"measurement": "climbing / motor performance in young (5-6 dpe) and aged (19-20 dpe) flies", "setting": "[1]; versus DMSO 0.05%", "value": "rescue effect was increased in aged flies; also recorded: increased motor performance"}, {"measurement": "climbing / motor performance versus DMSO treated or naive flies", "setting": "[1]; n=60", "value": "significantly able to rescue climbing defects; also recorded: increased motor performance"}, {"measurement": "STD-NMR binding to TDP-431-260", "setting": "TDP-431-260 [2]", "value": "positive hits"}, {"measurement": "2D 15N-HSQC: aggregation / chemical shift perturbations", "setting": "TDP-431-260 [3]; compound:protein 4:1 molar ratio, 100 μM protein", "value": "no protein aggregation with visible chemical shift perturbations"}, {"measurement": "2D 15N-HSQC chemical shifts on titration", "setting": "TDP-431-260 [3]; increasing concentrations up to 8:1 molar ratio nTRD22:TDP-431-260", "value": "the majority of them occurring in the RRM region of the protein"}, {"measurement": "Kd", "setting": "TDP-431-260 [4]", "value": "145 ± 3", "unit": "µM"}, {"measurement": "IC50", "setting": "[5]", "value": "~100", "unit": "µM"}, {"measurement": "TDP43-EGFP steady state levels (GFP signal)", "setting": "TDP43-EGFP", "value": "dose-dependent reduction"}, {"measurement": "intranuclear TDP43-EGFP droplet-like structures", "setting": "TDP43-EGFP", "value": "formation of intranuclear TDP43-EGFP droplet-like structures"}, {"measurement": "2D 15N-HSQC chemical shifts on TDP43102-269", "setting": "[6]", "value": "No shifts were observed"}, {"measurement": "fluorescence of control cells transfected with EGFP", "setting": "EGFP", "value": "No changes"}]}
